# In PubChem BioAssay (NCI):
#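 96-well plates; 48 h exposure; 5 concentrations. Endpoints by linear interpolation between flanking doses. Not reached: highest tested concentration assigned. TGI denotes the concentration required for complete inhibition of growth.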
# Assays:
# Experiment in all cases: DTP human tumour cell line panel, 48 h
# HL-60(TB) leukemia = tested on: HL-60(TB) leukemia
# EKVX NSCLC = tested on: EKVX NSCLC
# HOP-18 NSCLC = tested on: HOP-18 NSCLC
# UACC-62 melanoma = tested on: UACC-62 melanoma
# MOLT-4 leukemia = tested on: MOLT-4 leukemia
# IGROV1 ovarian = tested on: IGROV1 ovarian
# OVCAR-4 ovarian = tested on: OVCAR-4 ovarian
# SNB-19 CNS = tested on: SNB-19 CNS
# LOX IMVI melanoma = tested on: LOX IMVI melanoma
# SF-268 CNS = tested on: SF-268 CNS
# SR leukemia = tested on: SR leukemia
# KM12 colon = tested on: KM12 colon
# MALME-3M melanoma = tested on: MALME-3M melanoma
# NCI-H23 lung = tested on: NCI-H23 lung
# SN12C renal = tested on: SN12C renal
# OVCAR-5 ovarian = tested on: OVCAR-5 ovarian
# CAKI-1 renal = tested on: CAKI-1 renal
# HT29 colon = tested on: HT29 colon
# CCRF-CEM leukemia = tested on: CCRF-CEM leukemia
# SK-OV-3 ovarian = tested on: SK-OV-3 ovarian
# RXF-631 renal = tested on: RXF-631 renal
# DLD-1 colon = tested on: DLD-1 colon
# OVCAR-8 ovarian = tested on: OVCAR-8 ovarian
# SF-295 CNS = tested on: SF-295 CNS
# K-562 leukemia = tested on: K-562 leukemia
# UACC-257 melanoma = tested on: UACC-257 melanoma
# COLO 205 colon = tested on: COLO 205 colon
# HCT-15 colon = tested on: HCT-15 colon
# A549 NSCLC = tested on: A549 NSCLC
# DMS 273 small cell lung = tested on: DMS 273 small cell lung
# ACHN renal = tested on: ACHN renal
# HOP-62 NSCLC = tested on: HOP-62 NSCLC
# DMS 114 small cell lung = tested on: DMS 114 small cell lung
# OVCAR-3 ovarian = tested on: OVCAR-3 ovarian
# KM20L2 colon = tested on: KM20L2 colon
# SF-539 CNS = tested on: SF-539 CNS
# NCI-H226 lung = tested on: NCI-H226 lung
# M19-MEL melanoma = tested on: M19-MEL melanoma
# HOP-92 NSCLC = tested on: HOP-92 NSCLC
# A498 renal = tested on: A498 renal
# SNB-75 CNS = tested on: SNB-75 CNS
# HCT-116 colon = tested on: HCT-116 colon
# SW-620 colon = tested on: SW-620 colon
# UO-31 renal = tested on: UO-31 renal
# NCI-H522 lung = tested on: NCI-H522 lung
# LXFL 529 NSCLC = tested on: LXFL 529 NSCLC
# SK-MEL-5 melanoma = tested on: SK-MEL-5 melanoma
# 786-0 renal = tested on: 786-0 renal
# SNB-78 CNS = tested on: SNB-78 CNS
# XF 498 CNS = tested on: XF 498 CNS
# RPMI-8226 leukemia = tested on: RPMI-8226 leukemia
# U251 CNS = tested on: U251 CNS
# HCC-2998 colon = tested on: HCC-2998 colon
# RXF 393 renal = tested on: RXF 393 renal
# M14 melanoma = tested on: M14 melanoma
# NCI-H460 lung = tested on: NCI-H460 lung
# TK-10 renal = tested on: TK-10 renal
# SK-MEL-2 melanoma = tested on: SK-MEL-2 melanoma
# SK-MEL-28 melanoma = tested on: SK-MEL-28 melanoma
structure (smiles),measurement,setting,value
Clc1cccc(Cl)c1C1SCc2nc3ccccc3n21 (stereo not given),TGI,HL-60(TB) leukemia,> 100 µM
same,TGI,EKVX NSCLC,> 100 µM
same,TGI,HOP-18 NSCLC,> 100 µM
same,TGI,UACC-62 melanoma,> 100 µM
same,TGI,MOLT-4 leukemia,> 100 µM
same,TGI,IGROV1 ovarian,> 100 µM
same,TGI,OVCAR-4 ovarian,> 100 µM
same,TGI,SNB-19 CNS,> 100 µM
same,TGI,LOX IMVI melanoma,> 100 µM
same,TGI,SF-268 CNS,> 100 µM
same,TGI,SR leukemia,> 100 µM
same,TGI,KM12 colon,> 100 µM
same,TGI,MALME-3M melanoma,> 100 µM
same,TGI,NCI-H23 lung,> 100 µM
same,TGI,SN12C renal,> 100 µM
same,TGI,OVCAR-5 ovarian,> 100 µM
same,TGI,CAKI-1 renal,> 100 µM
same,TGI,HT29 colon,> 100 µM
same,TGI,CCRF-CEM leukemia,> 100 µM
same,TGI,SK-OV-3 ovarian,> 100 µM
same,TGI,RXF-631 renal,41.7 µM
same,TGI,DLD-1 colon,> 100 µM
same,TGI,OVCAR-8 ovarian,> 100 µM
same,TGI,SF-295 CNS,> 100 µM
same,TGI,K-562 leukemia,> 100 µM
same,TGI,UACC-257 melanoma,> 100 µM
same,TGI,COLO 205 colon,> 100 µM
same,TGI,HCT-15 colon,> 100 µM
same,TGI,A549 NSCLC,> 100 µM
same,TGI,DMS 273 small cell lung,> 100 µM
same,TGI,ACHN renal,> 100 µM
same,TGI,HOP-62 NSCLC,> 100 µM
same,TGI,DMS 114 small cell lung,> 100 µM
same,TGI,OVCAR-3 ovarian,> 100 µM
same,TGI,KM20L2 colon,> 100 µM
same,TGI,SF-539 CNS,> 100 µM
same,TGI,NCI-H226 lung,> 100 µM
same,TGI,M19-MEL melanoma,> 100 µM
same,TGI,HOP-92 NSCLC,> 100 µM
same,TGI,A498 renal,> 100 µM
same,TGI,SNB-75 CNS,> 100 µM
same,TGI,HCT-116 colon,> 100 µM
same,TGI,SW-620 colon,> 100 µM
same,TGI,UO-31 renal,> 100 µM
same,TGI,NCI-H522 lung,> 100 µM
same,TGI,LXFL 529 NSCLC,> 100 µM
same,TGI,SK-MEL-5 melanoma,67 µM
same,TGI,786-0 renal,> 100 µM
same,TGI,SNB-78 CNS,> 100 µM
same,TGI,XF 498 CNS,> 100 µM
same,TGI,RPMI-8226 leukemia,> 100 µM
same,TGI,U251 CNS,> 100 µM
same,TGI,HCC-2998 colon,> 100 µM
same,TGI,RXF 393 renal,> 100 µM
same,TGI,M14 melanoma,> 100 µM
same,TGI,NCI-H460 lung,> 100 µM
same,TGI,TK-10 renal,> 100 µM
COc1cc2c(cc1OC)C1[C@@H](c3ccccc3)OCN1CC2 (stereo not given in full),TGI,HL-60(TB) leukemia,> 89.8 µM
same,TGI,EKVX NSCLC,> 100 µM
same,TGI,HOP-18 NSCLC,> 100 µM
same,TGI,UACC-62 melanoma,> 100 µM
same,TGI,MOLT-4 leukemia,> 100 µM
same,TGI,IGROV1 ovarian,> 100 µM
same,TGI,OVCAR-4 ovarian,> 100 µM
same,TGI,SNB-19 CNS,> 100 µM
same,TGI,LOX IMVI melanoma,> 100 µM
same,TGI,SF-268 CNS,> 100 µM
same,TGI,SR leukemia,> 100 µM
same,TGI,KM12 colon,> 100 µM
same,TGI,MALME-3M melanoma,> 100 µM
same,TGI,NCI-H23 lung,> 100 µM
same,TGI,SK-MEL-2 melanoma,> 100 µM
same,TGI,SN12C renal,> 100 µM
same,TGI,OVCAR-5 ovarian,> 100 µM
same,TGI,CAKI-1 renal,> 100 µM
same,TGI,HT29 colon,> 100 µM
same,TGI,SK-MEL-28 melanoma,> 100 µM
same,TGI,CCRF-CEM leukemia,> 100 µM
same,TGI,SK-OV-3 ovarian,> 100 µM
same,TGI,RXF-631 renal,> 100 µM
same,TGI,DLD-1 colon,> 100 µM
same,TGI,OVCAR-8 ovarian,> 100 µM
same,TGI,SF-295 CNS,> 100 µM
same,TGI,K-562 leukemia,> 63.1 µM
same,TGI,UACC-257 melanoma,> 100 µM
same,TGI,COLO 205 colon,> 100 µM
same,TGI,HCT-15 colon,> 100 µM
same,TGI,A549 NSCLC,> 100 µM
same,TGI,DMS 273 small cell lung,> 100 µM
same,TGI,ACHN renal,> 100 µM
same,TGI,HOP-62 NSCLC,> 100 µM
same,TGI,DMS 114 small cell lung,> 100 µM
same,TGI,OVCAR-3 ovarian,> 100 µM
same,TGI,KM20L2 colon,> 100 µM
same,TGI,SF-539 CNS,> 100 µM
same,TGI,NCI-H226 lung,> 100 µM
same,TGI,M19-MEL melanoma,> 100 µM
same,TGI,HOP-92 NSCLC,> 100 µM
same,TGI,A498 renal,> 100 µM
same,TGI,SNB-75 CNS,> 100 µM
same,TGI,HCT-116 colon,> 100 µM
same,TGI,SW-620 colon,> 100 µM
same,TGI,UO-31 renal,> 100 µM
same,TGI,NCI-H522 lung,> 100 µM
same,TGI,LXFL 529 NSCLC,> 100 µM
same,TGI,SK-MEL-5 melanoma,> 100 µM
same,TGI,786-0 renal,> 100 µM
same,TGI,SNB-78 CNS,> 100 µM
same,TGI,XF 498 CNS,> 100 µM
same,TGI,RPMI-8226 leukemia,89.9 µM
same,TGI,U251 CNS,> 100 µM
same,TGI,HCC-2998 colon,> 100 µM
same,TGI,RXF 393 renal,> 100 µM
same,TGI,M14 melanoma,> 100 µM
same,TGI,NCI-H460 lung,> 100 µM
same,TGI,TK-10 renal,> 100 µM
COc1cc(OC)c2c(c1)C(=O)C(CC1(C)OCCCO1)=CC2=O,TGI,HL-60(TB) leukemia,7.88 µM
same,TGI,EKVX NSCLC,28.6 µM
same,TGI,HOP-18 NSCLC,25.7 µM
same,TGI,UACC-62 melanoma,16.2 µM
same,TGI,MOLT-4 leukemia,30.6 µM
same,TGI,IGROV1 ovarian,32.2 µM
same,TGI,OVCAR-4 ovarian,19.7 µM
same,TGI,SNB-19 CNS,32.4 µM
same,TGI,LOX IMVI melanoma,12.8 µM
same,TGI,SF-268 CNS,26.9 µM
same,TGI,SR leukemia,7.2 µM
same,TGI,KM12 colon,28.5 µM
same,TGI,MALME-3M melanoma,20.5 µM
same,TGI,NCI-H23 lung,27 µM
same,TGI,SK-MEL-2 melanoma,30.1 µM
same,TGI,SN12C renal,27.2 µM
same,TGI,OVCAR-5 ovarian,30.6 µM
same,TGI,CAKI-1 renal,18.8 µM
same,TGI,HT29 colon,28.9 µM
same,TGI,SK-MEL-28 melanoma,23.8 µM
same,TGI,CCRF-CEM leukemia,15.4 µM
same,TGI,SK-OV-3 ovarian,34.2 µM
same,TGI,RXF-631 renal,44.5 µM
same,TGI,DLD-1 colon,17.4 µM
same,TGI,OVCAR-8 ovarian,22.5 µM
same,TGI,SF-295 CNS,27.8 µM
same,TGI,K-562 leukemia,> 69.7 µM
same,TGI,UACC-257 melanoma,25.9 µM
same,TGI,COLO 205 colon,27.5 µM
same,TGI,HCT-15 colon,16.3 µM
same,TGI,A549 NSCLC,34.4 µM
same,TGI,DMS 273 small cell lung,22.5 µM
same,TGI,ACHN renal,21.6 µM
same,TGI,HOP-62 NSCLC,33.4 µM
same,TGI,DMS 114 small cell lung,15.8 µM
same,TGI,OVCAR-3 ovarian,21.4 µM
same,TGI,KM20L2 colon,27.7 µM
same,TGI,SF-539 CNS,25.6 µM
same,TGI,NCI-H226 lung,36.3 µM
same,TGI,M19-MEL melanoma,13.9 µM
same,TGI,HOP-92 NSCLC,7.73 µM
same,TGI,A498 renal,32.3 µM
same,TGI,SNB-75 CNS,25.3 µM
same,TGI,HCT-116 colon,17.7 µM
same,TGI,SW-620 colon,20.3 µM
same,TGI,UO-31 renal,24.1 µM
same,TGI,NCI-H522 lung,10.6 µM
same,TGI,LXFL 529 NSCLC,18.7 µM
same,TGI,SK-MEL-5 melanoma,20.9 µM
same,TGI,786-0 renal,21.5 µM
same,TGI,SNB-78 CNS,26.6 µM
same,TGI,XF 498 CNS,18.4 µM
same,TGI,RPMI-8226 leukemia,23.3 µM
same,TGI,U251 CNS,31.6 µM
same,TGI,HCC-2998 colon,32.2 µM
same,TGI,RXF 393 renal,10.4 µM
same,TGI,M14 melanoma,26 µM
same,TGI,NCI-H460 lung,34.7 µM
same,TGI,TK-10 renal,25.1 µM
